These results are taken from patent US7264956B2, “Compounds and methods for inhibiting axillary malodour” (Givaudan SA, priority 2001, dated 2007).

Entries after “also recorded” stand apart in the source; their conditions may differ. Read-outs that look alike come from different tables or passages of the source.

Series [1] deals with T1, enzyme extracted from Corynebacterium striatum A×20 (AMRE, Nα-acyl-glutamine-aminoacylase) (Corynebacterium striatum, UniProt Q8GGD4).
T1 construct: an enzyme may be isolated from cellular extracts obtained from wild-type bacterial strains; endogenous in cells; host or cells: Corynebacterium striatum Ax20 (DSM 14267), mechanically disrupted; crude extract or chromatographically purified enzyme
T1 sequence (Q8GGD4 2-400): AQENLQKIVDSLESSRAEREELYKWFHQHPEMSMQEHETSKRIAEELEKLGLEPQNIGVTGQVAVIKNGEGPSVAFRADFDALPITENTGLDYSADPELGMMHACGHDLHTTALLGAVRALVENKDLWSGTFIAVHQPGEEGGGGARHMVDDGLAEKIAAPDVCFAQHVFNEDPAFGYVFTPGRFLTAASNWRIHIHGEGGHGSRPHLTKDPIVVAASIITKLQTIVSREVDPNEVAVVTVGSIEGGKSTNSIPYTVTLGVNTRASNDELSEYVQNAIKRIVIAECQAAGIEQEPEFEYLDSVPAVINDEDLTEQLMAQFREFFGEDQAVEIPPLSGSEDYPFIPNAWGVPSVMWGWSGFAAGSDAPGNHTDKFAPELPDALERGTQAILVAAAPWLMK
The series is described as follows: Substrate specificity of the enzyme (capillary GC of released acid or alcohol). The class given is biochemical. Conditions: for Cleavage by enzyme: 500 ppm in Buffer A, 24 h incubation. On the procedure: To understand in detail the structural requirements of substrates, the enzyme extracted from Corynebacterium striatum A×20 was incubated with a wide variety of said compounds related to the originally isolated Nα-3-methyl-3-hydroxy-hexanoyl-L-glutamine present in sweat. Each compound was used at a concentration of 500 ppm in Buffer A, and analysis of released acid or alcohol was done by capillary GC after 24 h of incubation. First, different modifications at the N-terminus were tested.

In series [2] the test system is other Corynebacteria and some Staphylococci. Briefly: Release of lauric acid from Nα-lauroyl-L-glutamine by axilla bacteria. The conditions noted are these: same experiment as Table 1, Nα-lauroyl-L-glutamine as substrate. Format: cell-based. On the procedure:
The axillary flora of 8 panellists was isolated with the detergent-scrub method: A 6 cm^2 area of the axilla was scrubbed with a phosphate buffer at pH 7 containing 1% Tween 80. The samples were spread-plated on tryptic soy agar amended with 5 g/L of Tween 80 and 1 g/L of lecithin. Single isolates obtained after 48 h incubation were subcultured and characterised. A total of 24 individual strains were identified based on colony and cell morphology, gram-reaction, lipophilic growth, lipase reaction and API identification kits (bioMerieux, France; coryneforms with the API coryne kit and cocci with the ID Staph 32 kit). The strains were grown overnight in a liquid medium (Mueller-Hinton amended with 0.01% Tween 80), harvested by centrifugation and resuspended to a final OD600 of 1 in a semi-synthetic medium (Per litre: 3 g KH2PO4, 1.9 g K2HPO4, 0.2 g yeast extract, 0.2 g MgSO4, 1.4 g NaCl, 1 g NH4Cl, 10 mg MnCl2, 1 mg Fe3Cl2, 1 mg CaCl2). […] The Corynebacteria which are able to conduct this biochemical reaction may be found in the group of the lipophilic and in the group of the non-lipophilic Corynebacteria. Therefore, a specific enzyme only present in some bacterial strains seems to be responsible for this cleavage. Since it releases axilla malodour the putative enzyme was named AMRE, which stands for ‘axillary malodour releasing enzyme’. […]

In series [3] the target is T2, purified enzyme obtained from E.coli Top 10/pBADgIII AMRE (Corynebacterium striatum, UniProt Q8GGD4).
T2 construct: made in house; host or cells: E. coli TOP10 (Invitrogen), vector pBADgIIIA, arabinose-induced
T2 sequence (Q8GGD4 2-400): as above
The series is described as follows: High throughput screening for inhibitors (fluorescamine assay of released L-glutamine). The class given is biochemical. Conditions: substrate Nα-lauroyl-L-glutamine 0.05 mM; Ki calculated from IC50. An excerpt: Compounds, which inhibit an enzyme of the present invention reduce the activity of the enzyme and may lead to a significant reduction of the release of malodour acids from odourless fresh sweat. […] The activity of the compounds as inhibitors may be measured in terms of either their IC50 values or their Ki values, both of which measures are well known to the person skilled in the art. As is well known, the IC50 value provides the concentration of an inhibitor needed to reduce enzyme velocity by half at a given substrate concentration. This value is dependent on the affinity of the substrate for the enzyme which is reflected in the value Km of the substrate. In this way, the Ki value may be determined for a given substrate and a given substrate concentration by measuring IC50 and then calculating according to the following formula
Potential inhibitory compounds were dissolved in Buffer A and aliquots of the solutions of different inhibitors (10 μl) were distributed to individual wells of a white microtiter plate. Purified enzyme obtained from the strain E.coli Top 10/pBADgIII AMRE was diluted in Buffer A (200 pg/ml final concentration) and added to the inhibitory compounds. After 10 min preincubation, the substrate (Nα-lauroyl-L-glutamine) was added to the individual wells to a final concentration of 0.05 mM. After 15 min of incubation, the amino-group of the released L-glutamine was derivatised by adding to each well of the microtiter plate 50 μl of a fluorescamine stock solution (2.5 mM in acetonitrile; fluorescamine obtained from Fluka, Buchs, Switzerland). After 5 min the fluorescence in the wells of the microtiter plates was measured with an excitation wavelength of 360 nm and an emission wavelength of 460 nm. The fluorescence of control wells with enzyme, substrate and DMSO only was then compared to the fluorescence in wells containing potential inhibitors. By varying the inhibitor concentration, the IC50 value for each compound was determined, and the Ki values were calculated.

In series [4] the target is T3, purified enzyme from Corynebacterium striatum A×20 (Corynebacterium striatum, UniProt Q8GGD4).
T3 construct: an enzyme may be isolated from cellular extracts obtained from wild-type bacterial strains; endogenous in cells; host or cells: Corynebacterium striatum Ax20 (DSM 14267), mechanically disrupted; crude extract or chromatographically purified enzyme
T3 sequence (Q8GGD4 2-400): as above
The class given is biochemical. The conditions noted are these: for enzyme activity after incubation with serin-/cystein protease inhibitor: purified enzyme. How it is done:
Corynebacterium striatum A×20 was selected to isolate and purify the enzyme responsible for the cleavage of the precursor Nα-3-hydroxy-3-methyl-hexanoyl-L-glutamine. The strain was grown during 48 h in Mueller-Hinton broth amended with 0.01% Tween 80. A total volume of 2 L of culture was harvested by centrifugation. The pellet was washed in Buffer A (50 mM NaCl; 50 mM NaH2PO4/K2HPO4 buffer at pH 7) and this buffer was used throughout the whole purification procedure. The cells were disrupted mechanically by vortexing them with glass beads (425–600 μm, Sigma, St-Louis, USA) during 30 min at maximal speed. The crude cell lysate was then fractionated by precipitation with an increasing concentration of (NH4)2SO4. […] This enriched sample was dissolved in Buffer A and then sequentially passed over four chromatography columns: DEAE Sepharose CL-6B anion exchange resin (Pharmacia, Uppsala, Sweden; elution with a linear gradient from 0 to 800 mM KCI); Phenyl-Sepharose hydrophobic interaction resin (Pharmacia; elution with a linear gradient from 1000 mM to 0 mM of (NH4)2SO4; Mono Q strong anion exchange column on the FPLC system (Pharmacia; elution with a gradient from 0 to 800 mM KCl) and finally Mono P weak anion exchange column on the FPLC (elution with a gradient from 0–800 mM KCl in a 50 mM Bis-Tris buffer instead of Buffer A). […] Finally, the enzyme was subjected to LC-ESI-MS/MS analysis after tryptic digestion and to analysis of its N-terminal amino acid sequence.

The target in series [5] is T4, enzyme heterologously expressed in E. coli TOP10 (pBADgIIIAMRE) (Corynebacterium striatum, UniProt Q8GGD4).
T4 construct: made in house; host or cells: E. coli TOP10 (Invitrogen), vector pBADgIIIA, arabinose-induced
T4 sequence (Q8GGD4 2-400): as above
Briefly: Enzyme assay with extracts of E. coli expressing the enzyme (release of lauric acid). Format: biochemical. Conditions: 500 ppm substrate. The text has this:
The full-length sequence of the open reading frame coding for the enzyme was amplified with PCR from chromosomal DNA of A×20 using specific primers (SEQ ID NO 14 and SEQ ID NO 15). The amplified DNA fragment was then digested with the restriction enzymes NcoI and Hind III It was then ligated into the vector pBADIIIA (Invitrogen, Groningen, The Netherlands) pre-digested with the same enzymes. The resulting plasmid pBADgIIIAMRE was transformed into the host strain E. coli TOP10 (Invitrogen). This strain was grown in LB broth until it reached an optical density of about 0.5 at 600 nm. The culture was induced with arabinose (0.2% final concentration) incubated for 4 h, harvested by centrifugation and disrupted by ultrasonication. Enzyme assays with Na-lauryl-Glutamine as substrate were performed in Buffer A with an incubation time of 1 h and a substrate concentration of 500 ppm. Table 3 gives the activity of extracts obtained from wild-type cells and from extracts of the induced and non-induced modified strains expressing the enzyme.

Series [6] addresses T5, isolated enzyme (extracts of A×20) (Corynebacterium striatum, UniProt Q8GGD4).
T5 construct: an enzyme may be isolated from cellular extracts obtained from wild-type bacterial strains; endogenous in cells; host or cells: Corynebacterium striatum Ax20 (DSM 14267), mechanically disrupted; crude extract or chromatographically purified enzyme
Briefly: Low throughput screening for inhibitors, isolated enzyme (released lauric acid by GC). Format: biochemical. Conditions: substrate Nα-lauroyl-L-glutamine, 2 h. On the procedure:
(§1) Extracts of A×20 were prepared by mechanical disruption as described in Example 3. The extract (0.5 ml corresponding to 2 ml initial cell culture) was added to 3.5 ml of Buffer A and amended with 40 μl of substrate (Nα-lauroyl-L-glutamine, 5% stock solution in methanol). Parallel samples were additionally amended with potential inhibitory compounds to give a final concentration of 0.5 and 5 mM. The samples were incubated for 2 h and then extracted with MTBE and HCI and analysed for released lauric acid using capillary GC. By comparing the samples containing potential inhibitory compounds with control samples with enzyme and substrate only, the inhibition (%) was calculated. The same assay was also made either with purified enzyme from the wild-type strain (see example 3) or with extracts from E.coli Top 10/pBADgIII AMRE induced with arabinose (see example 6). Furthermore, the same assay was made using stationary phase living cells of A×20 instead of an isolated enzyme preparation. In this case successful uptake of the inhibitors into the cells and inhibition are measured simultaneously.

Series [7] deals with T6, enzyme activity in living cells of A×20 (Corynebacterium striatum, UniProt Q8GGD4).
T6 construct: stationary phase living cells of A×20; endogenous in cells; host or cells: Corynebacterium striatum Ax20, stationary-phase living cells
T6 sequence (Q8GGD4 2-400): as above
The series is described as follows: Low throughput screening for inhibitors, stationary phase living cells of A×20. The class given is cell-based. The conditions noted are these: 5 mM; substrate Nα-lauroyl-L-glutamine, 2 h. How it is done: as §1

T5 sequence (Q8GGD4 2-400): as above

Take `CCCCCCCCCCCC(=O)N[C@@H](CCC(N)=O)C(=O)O` [Nα-lauroyl-L-glutamine]: the “cleavage of substrate by enzyme (in words)” value in series [1] was “able to be cleaved; also recorded: can cleave”. Besides, the “release of lauric acid from substrate by axilla bacteria” value in series [2] is “can release lauric acid”.
Consider `CCCCP(=O)(O)CC(CCC(N)=O)C(=O)O` (stereo not shown) [Compound 8c], for which, in series [3], the Ki (in general, a measure of affinity in units of concentration, obtained from inhibition or displacement) was 110 ± 10 nM.
As to `NCCc1ccc(S(=O)(=O)F)cc1` [Pefabloc SC, 4-(2-aminoethyl)-benzenesulfonylfluoride], the “enzyme activity after incubation with serin-/cystein protease inhibitor” value in series [4] was “retained all its activity”.
`O=S(=O)(F)Cc1ccccc1` [PMSF, Phenylmethylsulfonylfluoride]: in series [4], the “enzyme activity after incubation with serin-/cystein protease inhibitor” value is given as “retained all its activity”.
Turning to `NC(=O)CCC(CP(=O)(O)Cc1ccccc1)C(=O)O` (stereo not shown) [Compound 8a], in series [3], the Ki was 50 ± 3 nM.
Take `NC(=O)CC[C@H](NC(=O)[C@@H](S)Cc1ccccc1)C(=O)O` [Compound 5a]: the Ki in series [3] was 54 ± 1 nM.
On to `NC(=O)C[C@H](NC(=O)OCc1ccccc1)C(=O)O` [compound 12, Carbobenzyloxy-L-asparagine], for which the melting point – broadly, the temperature, or range, at which the solid turns liquid – lay in the range of 102 to 104 °C. The Cleavage by enzyme entry in series [1] is given as “−”.
For the compound `CCCC[C@H](S)C(=O)N[C@@H](CCC(N)=O)C(=O)O` [Compound 5c], the Ki in series [3] was 410 ± 20 nM.
With `CC(C)CP(=O)(O)CC(CCC(N)=O)C(=O)O` (stereo not shown) [Compound 8b], in series [3], the Ki was 58 ± 4 nM.
On to `CCCCCCCCCCCC(=O)N[C@@H](CCC(N)=O)C(=O)O` [compound 2, Nα-lauroyl-L-glutamine], for which the Cleavage by enzyme result in series [1] is recorded as “+++ (+++ cleavage over 50%)”. Moreover, the “release of lauric acid from Lauryl-Glutamine, 1 h incubation” value is recorded as “below detection” in series [5] (extract of E. coli Top 10 (wild-type), 4 h after induction); 23 ppm in series [5] (extract of E. coli Top 10/pBADgIIIAMRE not induced); 329 ppm in series [5] (extract of E. coli Top 10 induced, 4 h after induction).
Take `CC(C)C[C@H](S)C(=O)N[C@@H](CCC(N)=O)C(=O)O` [Compound 5b]: in series [3], the Ki was 130 ± 10 nM.
`O=C(O)CN(CCN(CC(=O)O)CC(=O)O)CC(=O)O` [EDTA]: the “inhibition of the enzyme” value in series [4] is recorded as “completely inhibited”.
For `[Cl-].[Cl-].[Zn+2]` [ZnCl2], the “reversal of EDTA / o-phenantrolin inhibition” value in series [4] (addition of 1 mM) is reported as “could be reversed”.
As for `c1cnc2c(c1)ccc1cccnc12` [o-phenantrolin], the “inhibition of the enzyme” value in series [4] (1 mM) is “completely inhibited”. The “% inhibition of the isolated enzyme” value in series [6] (0.5 mM) and in series [6] (5 mM) was 100% in each case. The “% inhibition of enzyme activity in living cells” value in series [7] stood at 90.3%.
